Laboratory results: patent US20170190671A1, “BIS(ARYL)CATECHOL DERIVATIVES AS HERBICIDES” (E I DU PONT DE NEMOURS AND COMPANY, priority 2014, published 2017)

Tests used:
[1] = test system: Italian ryegrass (Lolium multiflorum); test: Test C preemergence; assay type: in vivo; conditions: Lolium multiflorum, pre-emergence, 336 h, preemergence, scale 0 to 100, read-out: Plant response rating, Ryegrass, Italian
Procedure, shortened: (§1)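 After preemergence treatment of seeds in loam-sand soil or foliar treatment at the 1- to 4-leaf stage of plants in peat/vermiculite medium, pots were kept 13-15 days in the greenhouse. Each was then scored visually, 0 meaning no effect and 100 complete control.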

[2] = test system: barnyardgrass (Echinochloa crus-galli); test: Test C preemergence; assay type: in vivo; conditions: Echinochloa crus-galli, pre-emergence, preemergence, scale 0 to 100, read-out: Plant response rating, Barnyardgrass
Procedure, shortened: as §1

[3] = test system: blackgrass (Alopecurus myosuroides); test: Test C preemergence; assay type: in vivo; conditions: Alopecurus myosuroides, pre-emergence, 336 h, preemergence, scale 0 to 100, read-out: Plant response rating, Blackgrass
Procedure, shortened: as §1

corn (Zea mays) [4] = test: Test C preemergence; assay type: in vivo; conditions: Zea mays, pre-emergence, 336 h, preemergence, scale 0 to 100
Procedure, shortened: as §1

[5] = test system: giant foxtail (Setaria faberii); test: Test C preemergence; assay type: in vivo; conditions: Setaria faberi, pre-emergence, 336 h, preemergence, scale 0 to 100, read-out: Plant response rating, Foxtail, Giant
Procedure, shortened: as §1

[6] = test system: johnsongrass (Sorghum halepense); test: Test C preemergence; assay type: in vivo; conditions: Sorghum halepense, pre-emergence, 336 h, preemergence, scale 0 to 100, read-out: Plant response rating, Johnsongrass
Procedure, shortened: as §1

[7] = test system: lambsquarters (Chenopodium album); test: Test C preemergence; assay type: in vivo; conditions: Chenopodium album, pre-emergence, 336 h, preemergence, scale 0 to 100, read-out: Plant response rating, Lambsquarters
Procedure, shortened: as §1

[8] = test system: large (Lg) crabgrass (Digitaria sanguinalis); test: Test C preemergence; assay type: in vivo; conditions: Digitaria sanguinalis, pre-emergence, 336 h, preemergence, scale 0 to 100, read-out: Plant response rating, Crabgrass, Large
Procedure, shortened: as §1

[9] = test system: morningglory (Ipomoea coccinea); test: Test C preemergence; assay type: in vivo; conditions: Ipomoea, pre-emergence, 336 h, preemergence, scale 0 to 100, read-out: Plant response rating, Morningglory
Procedure, shortened: as §1

[10] = test system: oilseed rape (Brassica napus); test: Test C preemergence; assay type: in vivo; conditions: Brassica napus, pre-emergence, preemergence, scale 0 to 100, read-out: Plant response rating, Oilseed Rape
Procedure, shortened: as §1

[11] = test system: pigweed (Amaranthus retroflexus); test: Test C preemergence; assay type: in vivo; conditions: Amaranthus retroflexus, pre-emergence, 336 h, preemergence, scale 0 to 100, read-out: Plant response rating, Pigweed
Procedure, shortened: as §1

soybean (Glycine max) [12] = test: Test C preemergence; assay type: in vivo; conditions: Glycine max, pre-emergence, preemergence, scale 0 to 100, read-out: Plant response rating, Soybean
Procedure, shortened: as §1

[13] = test system: velvetleaf (Abutilon theophrasti); test: Test C preemergence; assay type: in vivo; conditions: Abutilon theophrasti, pre-emergence, preemergence, scale 0 to 100, read-out: Plant response rating, Velvetleaf
Procedure, shortened: as §1

[14] = test system: waterhemp (common waterhemp, Amaranthus rudis); test: Test C preemergence; assay type: in vivo; conditions: Amaranthus tuberculatus, pre-emergence, preemergence, scale 0 to 100, read-out: Plant response rating, Waterhemp
Procedure, shortened: as §1

[15] = test system: winter wheat (Triticum aestivum); test: Test C preemergence; assay type: in vivo; conditions: Triticum aestivum, pre-emergence, 336 h, preemergence, scale 0 to 100, read-out: Plant response rating, Wheat
Procedure, shortened: as §1

[16] = test system: yellow nutsedge (Cyperus esculentus); test: Test C preemergence; assay type: in vivo; conditions: Cyperus, pre-emergence, 336 h, preemergence, scale 0 to 100, read-out: Plant response rating, Nutsedge, Yellow
Procedure, shortened: as §1

corn (Zea mays) [17] = test: Test C postemergence; assay type: in vivo; conditions: Zea mays, post-emergence, 336 h, Postemergence, scale 0 to 100
Procedure, shortened: as §1

[18] = test system: galium (catchweed bedstraw, Galium aparine); test: Test C postemergence; assay type: in vivo; conditions: Galium, post-emergence, 336 h, Postemergence, scale 0 to 100, read-out: Plant response rating, Galium
Procedure, shortened: as §1

[19] = test system: lambsquarters (Chenopodium album); test: Test C postemergence; assay type: in vivo; conditions: Chenopodium album, post-emergence, 336 h, Postemergence, scale 0 to 100, read-out: Plant response rating, Lambsquarters
Procedure, shortened: as §1

[20] = test system: ragweed (common ragweed, Ambrosia elatior); test: Test C postemergence; assay type: in vivo; conditions: Ambrosia artemisiifolia, post-emergence, 336 h, Postemergence, scale 0 to 100, read-out: Plant response rating, Ragweed
Procedure, shortened: as §1

soybean (Glycine max) [21] = test: Test C postemergence; assay type: in vivo; conditions: Glycine max, post-emergence, Postemergence, scale 0 to 100, read-out: Plant response rating, Soybean
Procedure, shortened: as §1

[22] = test system: waterhemp (common waterhemp, Amaranthus rudis); test: Test C postemergence; assay type: in vivo; conditions: Amaranthus tuberculatus, post-emergence, Postemergence, scale 0 to 100, read-out: Plant response rating, Waterhemp
Procedure, shortened: as §1

Fc1cnc(Oc2c(Br)cccc2Oc2ncc(Cl)cn2)nc1 [Compound 22]
pest or weed control at 31 g/ha ([1]; 31 g ai/ha): 5%
pest or weed control at 62 g/ha ([1]; 62 g ai/ha): 30%
pest or weed control at 125 g/ha ([1]; 125 g ai/ha): 80%
pest or weed control at 250 g/ha ([1]; 250 g ai/ha): 90%
pest or weed control at 31 g/ha ([2]; 31 g ai/ha): 60%
pest or weed control at 62 g/ha ([2]; 62 g ai/ha): 95%
pest or weed control at 125 g/ha ([2]; 125 g ai/ha): 100%
pest or weed control at 250 g/ha ([2]; 250 g ai/ha): 100%
pest or weed control at 31 g/ha ([3]; 31 g ai/ha): 10%
pest or weed control at 62 g/ha ([3]; 62 g ai/ha): 60%
pest or weed control at 125 g/ha ([3]; 125 g ai/ha): 90%
Corn plant response rating (crop injury, 0 = no effect, 100 = complete kill) at 31 g/ha (corn (Zea mays) [4]; 31 g ai/ha): 10%
Corn plant response rating (crop injury, 0 = no effect, 100 = complete kill) at 62 g/ha (corn (Zea mays) [4]; 62 g ai/ha): 40%
Corn plant response rating (crop injury, 0 = no effect, 100 = complete kill) at 125 g/ha (corn (Zea mays) [4]; 125 g ai/ha): 80%
pest or weed control at 31 g/ha ([5]; 31 g ai/ha): 100%
pest or weed control at 62 g/ha ([5]; 62 g ai/ha): 100%
pest or weed control at 125 g/ha ([5]; 125 g ai/ha): 100%
pest or weed control at 31 g/ha ([6]; 31 g ai/ha): 10%
pest or weed control at 62 g/ha ([6]; 62 g ai/ha): 30%
pest or weed control at 125 g/ha ([6]; 125 g ai/ha): 70%
pest or weed control at 31 g/ha ([7]; 31 g ai/ha): 75%
pest or weed control at 62 g/ha ([7]; 62 g ai/ha): 100%
pest or weed control at 125 g/ha ([7]; 125 g ai/ha): 100%
pest or weed control at 31 g/ha ([8]; 31 g ai/ha): 100%
pest or weed control at 62 g/ha ([8]; 62 g ai/ha): 100%
pest or weed control at 125 g/ha ([8]; 125 g ai/ha): 100%
pest or weed control at 31 g/ha ([9]; 31 g ai/ha): 0%
pest or weed control at 62 g/ha ([9]; 62 g ai/ha): 65%
pest or weed control at 125 g/ha ([9]; 125 g ai/ha): 95%
plant injury at 31 g/ha ([10]; 31 g ai/ha): 85%
plant injury at 62 g/ha ([10]; 62 g ai/ha): 98%
plant injury at 125 g/ha ([10]; 125 g ai/ha): 100%
plant injury at 250 g/ha ([10]; 250 g ai/ha): 100%
pest or weed control at 31 g/ha ([11]; 31 g ai/ha): 100%
pest or weed control at 62 g/ha ([11]; 62 g ai/ha): 100%
pest or weed control at 125 g/ha ([11]; 125 g ai/ha): 100%
plant injury at 31 g/ha (soybean (Glycine max) [12]; 31 g ai/ha): 60%
plant injury at 62 g/ha (soybean (Glycine max) [12]; 62 g ai/ha): 70%
plant injury at 125 g/ha (soybean (Glycine max) [12]; 125 g ai/ha): 90%
plant injury at 250 g/ha (soybean (Glycine max) [12]; 250 g ai/ha): 95%
pest or weed control at 31 g/ha ([13]; 31 g ai/ha): 70%
pest or weed control at 62 g/ha ([13]; 62 g ai/ha): 98%
pest or weed control at 125 g/ha ([13]; 125 g ai/ha): 100%
pest or weed control at 250 g/ha ([13]; 250 g ai/ha): 100%
pest or weed control at 31 g/ha ([14]; 31 g ai/ha): 100%
pest or weed control at 62 g/ha ([14]; 62 g ai/ha): 100%
pest or weed control at 125 g/ha ([14]; 125 g ai/ha): 100%
pest or weed control at 250 g/ha ([14]; 250 g ai/ha): 100%
plant injury at 31 g/ha ([15]; 31 g ai/ha): 0%
plant injury at 62 g/ha ([15]; 62 g ai/ha): 15%
plant injury at 125 g/ha ([15]; 125 g ai/ha): 20%
plant injury at 250 g/ha ([15]; 250 g ai/ha): 90%
pest or weed control at 31 g/ha ([16]; 31 g ai/ha): 0%
pest or weed control at 62 g/ha ([16]; 62 g ai/ha): 20%
pest or weed control at 125 g/ha ([16]; 125 g ai/ha): 60%
Corn plant response rating (crop injury, 0 = no effect, 100 = complete kill) at 31 g/ha (corn (Zea mays) [17]; 31 g ai/ha): 5%
Corn plant response rating (crop injury, 0 = no effect, 100 = complete kill) at 62 g/ha (corn (Zea mays) [17]; 62 g ai/ha): 10%
Corn plant response rating (crop injury, 0 = no effect, 100 = complete kill) at 125 g/ha (corn (Zea mays) [17]; 125 g ai/ha): 10%
Corn plant response rating (crop injury, 0 = no effect, 100 = complete kill) at 250 g/ha (corn (Zea mays) [17]; 250 g ai/ha): 10%
pest or weed control at 31 g/ha ([18]; 31 g ai/ha): 70%
pest or weed control at 62 g/ha ([18]; 62 g ai/ha): 90%
pest or weed control at 125 g/ha ([18]; 125 g ai/ha): 90%
pest or weed control at 250 g/ha ([18]; 250 g ai/ha): 95%
pest or weed control at 31 g/ha ([19]; 31 g ai/ha): 70%
pest or weed control at 62 g/ha ([19]; 62 g ai/ha): 75%
pest or weed control at 125 g/ha ([19]; 125 g ai/ha): 95%
pest or weed control at 250 g/ha ([19]; 250 g ai/ha): 98%
pest or weed control at 31 g/ha ([20]; 31 g ai/ha): 30%
pest or weed control at 62 g/ha ([20]; 62 g ai/ha): 35%
pest or weed control at 125 g/ha ([20]; 125 g ai/ha): 90%
pest or weed control at 250 g/ha ([20]; 250 g ai/ha): 90%
plant injury at 31 g/ha (soybean (Glycine max) [21]; 31 g ai/ha): 40%
plant injury at 62 g/ha (soybean (Glycine max) [21]; 62 g ai/ha): 75%
plant injury at 125 g/ha (soybean (Glycine max) [21]; 125 g ai/ha): 90%
plant injury at 250 g/ha (soybean (Glycine max) [21]; 250 g ai/ha): 0%
pest or weed control at 31 g/ha ([22]; 31 g ai/ha): 70%
pest or weed control at 62 g/ha ([22]; 62 g ai/ha): 85%
pest or weed control at 125 g/ha ([22]; 125 g ai/ha): 95%
pest or weed control at 250 g/ha ([22]; 250 g ai/ha): 95%
melting point: 113 to 116 °C
